The source made the active and inactive calls. No cut-off for these calls is given here.
Experiments:
HepG2 [1] = experiment: Antiproliferative activity against human HepG2 cells measured after 48 hrs by MTT assay; details: HepG2, 48 h
NCI-H596 [2] = experiment: Antiproliferative activity against human NCI-H596 cells measured after 48 hrs by MTT assay; type: functional, cell-based; details: NCI-H596, 48 h
A549 [3] = experiment: Antiproliferative activity against human A549 cells measured after 48 hrs in presence of NQO1 inhibitor dicoumarol by MTT assay; type: functional, cell-based; details: A549, 48 h
L02 = experiment: Cytotoxicity against human L02 cells measured after 48 hrs by MTT assay; type: cell-based; details: L02, 48 h
[4] = target: NAD(P)H dehydrogenase [quinone] 1 (Homo sapiens, UniProt P15559); experiment: Substrate activity at recombinant human C-terminal His-tagged NQO1 (1 to 274 residues) expressed in Escherichia coli assessed as metabolic rate by measuring NADPH oxidation per micromol protein at 10 mmol/L measured at 5 secs interval for 1 min by UV-Visible Spectrophotometric method; type: ADME
A549 [5] = experiment: cells; details: Homo sapiens, A549, 48 h
in vitro = details: human, L02 cells and A549 cells
HepG2 [6] = experiment: Induction of reactive oxygen species production in human HepG2 cells at 5 uM measured after 5 hrs by DCFH-DA staining based flow cytometry; type: functional, cell-based
NCI-H596 [7] = experiment: Induction of reactive oxygen species production in human NCI-H596 cells at 5 uM measured after 5 hrs by DCFH-DA staining based flow cytometry; type: functional, cell-based
HepG2 [8] = experiment: Antitumor activity against human HepG2 cells xenografted in BALB/c athymic nude mouse assessed as tumor growth inhibition at 20 mg/kg, iv administered at 2 days interval 19 days by caliper method relative to control; type: functional; details: 456 h, time 19 day, read-out: TGI
HepG2 [9] = experiment: Induction of apoptosis in human HepG2 cells assessed as viable cells at 0.8 uM measured after 24 hrs by Annexin V-FITC/propidium iodide staining based flow cytometry (reference value: 94.73%); type: functional; details: read-out: Activity
HepG2 [10] = experiment: Induction of apoptosis in human HepG2 cells assessed as early apoptotic cells at 0.8 uM measured after 24 hrs by Annexin V-FITC/propidium iodide staining based flow cytometry (reference value: 2.65%); type: functional
HepG2 [11] = experiment: Induction of apoptosis in human HepG2 cells assessed as late apoptotic cells at 0.8 uM measured after 24 hrs by Annexin V-FITC/propidium iodide staining based flow cytometry (reference value: 2.27%); type: functional
HepG2 [12] = experiment: Induction of apoptosis in human HepG2 cells assessed as necrotic cells at 0.8 uM measured after 24 hrs by Annexin V-FITC/propidium iodide staining based flow cytometry (reference value: 0.35%); type: functional
HepG2 [13] = experiment: Induction of apoptosis in human HepG2 cells assessed as viable cells at 1.6 uM measured after 24 hrs by Annexin V-FITC/propidium iodide staining based flow cytometry (reference value: 94.73%); type: functional; details: read-out: Activity
HepG2 [14] = experiment: Induction of apoptosis in human HepG2 cells assessed as early apoptotic cells at 1.6 uM measured after 24 hrs by Annexin V-FITC/propidium iodide staining based flow cytometry (reference value: 2.65%); type: functional
HepG2 [15] = experiment: Induction of apoptosis in human HepG2 cells assessed as late apoptotic cells at 1.6 uM measured after 24 hrs by Annexin V-FITC/propidium iodide staining based flow cytometry (reference value: 2.27%); type: functional
HepG2 [16] = experiment: Induction of apoptosis in human HepG2 cells assessed as necrotic cells at 1.6 uM measured after 24 hrs by Annexin V-FITC/propidium iodide staining based flow cytometry (reference value: 0.35%); type: functional
HepG2 [17] = experiment: Induction of apoptosis in human HepG2 cells assessed as viable cells at 3.2 uM measured after 24 hrs by Annexin V-FITC/propidium iodide staining based flow cytometry (reference value: 94.73%); type: functional; details: read-out: Activity
HepG2 [18] = experiment: Induction of apoptosis in human HepG2 cells assessed as early apoptotic cells at 3.2 uM measured after 24 hrs by Annexin V-FITC/propidium iodide staining based flow cytometry (reference value: 2.65%); type: functional
HepG2 [19] = experiment: Induction of apoptosis in human HepG2 cells assessed as late apoptotic cells at 3.2 uM measured after 24 hrs by Annexin V-FITC/propidium iodide staining based flow cytometry (reference value: 2.27%); type: functional
HepG2 [20] = experiment: Induction of apoptosis in human HepG2 cells assessed as necrotic cells at 3.2 uM measured after 24 hrs by Annexin V-FITC/propidium iodide staining based flow cytometry (reference value: 0.35%); type: functional
NCI-H596 [21] = experiment: Induction of apoptosis in human NCI-H596 cells assessed as viable cells at 1.6 uM measured after 24 hrs by Annexin V-FITC/propidium iodide staining based flow cytometry (reference value: 95.17%); type: functional; details: read-out: Activity
NCI-H596 [22] = experiment: Induction of apoptosis in human NCI-H596 cells assessed as early apoptotic cells at 1.6 uM measured after 24 hrs by Annexin V-FITC/propidium iodide staining based flow cytometry (reference value: 2.28%); type: functional
NCI-H596 [23] = experiment: Induction of apoptosis in human NCI-H596 cells assessed as late apoptotic cells at 1.6 uM measured after 24 hrs by Annexin V-FITC/propidium iodide staining based flow cytometry (reference value: 1.91%); type: functional
NCI-H596 [24] = experiment: Induction of apoptosis in human NCI-H596 cells assessed as necrotic cells at 1.6 uM measured after 24 hrs by Annexin V-FITC/propidium iodide staining based flow cytometry (reference value: 0.64%); type: functional
[25] = Toxicity in human HepG2 cells xenografted BALB/c athymic nude mouse assessed as change in body weight at 20 mg/kg, iv administered at 2 days interval 19 days; type: organism-based; details: in vivo, 456 h, time 19 day
HepG2 [26] = experiment: Cell cycle arrest in human HepG2 cells assessed as accumulation at G0/G1 phase at 0.6 uM measured after 24 hrs by propidium iodide staining based flow cytometry analysis (reference value: 46.76%); type: functional
HepG2 [27] = experiment: Cell cycle arrest in human HepG2 cells assessed as accumulation at G0/G1 phase at 1.2 uM measured after 24 hrs by propidium iodide staining based flow cytometry analysis (reference value: 46.76%); type: functional
HepG2 [28] = experiment: Cell cycle arrest in human HepG2 cells assessed as accumulation at G0/G1 phase at 2.4 uM measured after 24 hrs by propidium iodide staining based flow cytometry analysis (reference value: 46.76%); type: functional

COc1ccc2c(c1)C1=C(C(=O)C2=O)C(c2cc(C)cc(O)c2)NC(=S)N1 (stereo not drawn)
IC50 (HepG2 [1]): 1.7 µM
IC50 (NCI-H596 [2]): 2.52 µM
IC50 (A549 [3]): 1.5 µM
IC50 (L02): 1.86 µM
Drug metabolism [4]: 1427 micromol/min/micromol protein
IC50 (A549 [5]): 0.32 µM
selectivity ratio (in vitro): 5.81

Cc1cc(O)cc(C2NC(=S)NC3=C2C(=O)C(=O)c2ccccc23)c1 (stereo not drawn)
IC50 (HepG2 [1]): 1.34 µM
IC50 (NCI-H596 [2]): 10.9 µM
IC50 (A549 [3]): 1.21 µM
IC50 (L02): 8.41 µM
Drug metabolism [4]: 539 micromol/min/micromol protein
IC50 (A549 [5]): 0.49 µM
selectivity ratio (in vitro): 17.2

O=C1C(=O)c2ccccc2C2=C1C(c1cccc(O)c1)NC(=S)N2 (stereo not drawn)
IC50 (HepG2 [1]): 2.12 µM
IC50 (NCI-H596 [2]): 2.49 µM
IC50 (A549 [3]): 1.71 µM
IC50 (L02): 2.88 µM
Drug metabolism [4]: 1128 micromol/min/micromol protein
IC50 (A549 [5]): 0.37 µM
selectivity ratio (in vitro): 7.78

O=C1C(=O)c2ccccc2C2=C1C(c1cccc(O)c1Cl)NC(=S)N2 (stereo not drawn)
IC50 (HepG2 [1]): 1.4 µM
IC50 (NCI-H596 [2]): 3.09 µM
IC50 (A549 [3]): 1.33 µM
IC50 (L02): 1.64 µM
Drug metabolism [4]: 1273 micromol/min/micromol protein
IC50 (A549 [5]): 1.02 µM
selectivity ratio (in vitro): 1.61

CC1(C)CCC2=C(O1)c1ccccc1C(=O)C2=O [LAPACHONE]
IC50 (HepG2 [1]): 2.83 µM
IC50 (NCI-H596 [2]): 5.06 µM
IC50 (A549 [3]): 6 µM
IC50 (L02): 4.54 µM
Activity (HepG2 [6]): Active
Activity (NCI-H596 [7]): Active
inhibition in vivo at 20 mg/kg (HepG2 [8]): 67.4%
IC50 (A549 [5]): 3.32 µM
selectivity ratio (in vitro): 1.37

O=C1C(=O)c2ccccc2C2=C1C(c1cc(O)cc(Cl)c1)NC(=S)N2 (stereo not drawn)
IC50 (HepG2 [1]): 1.69 µM
IC50 (NCI-H596 [2]): 17.1 µM
IC50 (A549 [3]): 1.43 µM
IC50 (L02): 4.58 µM
Drug metabolism [4]: 941 micromol/min/micromol protein
IC50 (A549 [5]): 0.96 µM
selectivity ratio (in vitro): 4.77

COc1ccc2c(c1)C1=C(C(=O)C2=O)C(c2cccc(O)c2)NC(=S)N1 (stereo not drawn)
IC50 (HepG2 [1]): 1.57 µM
IC50 (NCI-H596 [2]): 2.2 µM
IC50 (A549 [3]): 1.19 µM
IC50 (L02): 1.75 µM
Drug metabolism [4]: 997 micromol/min/micromol protein
IC50 (A549 [5]): 0.3 µM
selectivity ratio (in vitro): 5.83

COc1ccc2c(c1)C(=O)C(=O)C1=C2NC(=S)NC1c1cccc(O)c1 (stereo not drawn)
IC50 (HepG2 [1]): 1.6 µM
IC50 (NCI-H596 [2]): 7.07 µM
IC50 (A549 [3]): 4.55 µM
IC50 (L02): 21 µM
Drug metabolism [4]: 1530 micromol/min/micromol protein
viability at 0.8 µM (HepG2 [9]): 83.7%
Activity (HepG2 [10]): 7.21%
Activity (HepG2 [11]): 8.52%
Activity (HepG2 [12]): 0.52%
viability at 1.6 µM (HepG2 [13]): 78.1%
Activity (HepG2 [14]): 9.89%
Activity (HepG2 [15]): 11.48%
Activity (HepG2 [16]): 0.53%
viability at 3.2 µM (HepG2 [17]): 71.1%
Activity (HepG2 [18]): 12.67%
Activity (HepG2 [19]): 15.3%
Activity (HepG2 [20]): 0.95%
viability at 1.6 µM (NCI-H596 [21]): 90.8%
Activity (NCI-H596 [22]): 4.22%
Activity (NCI-H596 [23]): 4.81%
Activity (NCI-H596 [24]): 0.14%
Activity (HepG2 [6]): Active
Activity (NCI-H596 [7]): Active
inhibition in vivo at 20 mg/kg (HepG2 [8]): 58.1%
Activity [25]: Non-Toxic
Activity (HepG2 [26]): 48.54%
Activity (HepG2 [27]): 49.6%
Activity (HepG2 [28]): 53%
IC50 (A549 [5]): 0.72 µM
selectivity ratio (in vitro): 29.1

O=C1C(=O)c2ccccc2C2=C1C(c1cc(O)ccc1Br)NC(=S)N2 (stereo not drawn)
IC50 (HepG2 [1]): 1.31 µM
IC50 (NCI-H596 [2]): 1.61 µM
IC50 (A549 [3]): 1.55 µM
IC50 (L02): 1.51 µM
Drug metabolism [4]: 1083 micromol/min/micromol protein
IC50 (A549 [5]): 0.48 µM
selectivity ratio (in vitro): 3.15

From ChEMBL document CHEMBL4765385, “Synthesis and biological evaluation of β-lapachone-monastrol hybrids as potential anticancer agents” (Eur J Med Chem, 2020)
